Measured values taken from patent publication US20240140941A1, “DERIVATIVE OF 2,5-DIKETOPIPERAZINE COMPOUND, AND PREPARATION METHOD THEREFOR, PHARMACEUTICAL COMPOSITION THEREOF AND USE THEREOF” (DALIAN WZ PROBIOTICS AD HEALTH CO., LTD, priority 2020, published 2024).
Where a name gives a salt, the structure may show the parent alone. Read-outs that look alike come from different tables or passages of the source.

Key:
NCI-H460 = test: Inhibition test on cell proliferation (MTT), NCI-H460; format: cell-based, human; conditions: Homo sapiens, NCI-H460, 72 h
In short: (§1)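 Cells plated at 2000-6000 per well, allowed to adhere for 24 h, then exposed to serially diluted compound for 72 h at 37 °C, 5% CO2. Viability read by MTT reduction, with formazan dissolved in DMSO and absorbance taken at 490 nm. Inhibition rate calculated relative to untreated and zero-setting wells.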

HCC-LM3 = test: Inhibition test on cell proliferation (MTT), HCC-LM3; format: cell-based, human; conditions: Homo sapiens, HCCLM3, 72 h, read-out: IC50 (nM) HCC-LM3
Procedure: (§2) Tumor cells (NCI-H460, BxPC-3, HT-29, HCC-LM3) in the logarithmic growth phase were digested, centrifuged, and the supernatants were removed. Cells were resuspended by adding fresh culture medium, and counted using a cell counting plate. 100 μL of culture medium (containing cells) was added to a 96-well plate according to the standard of 2000 to 6000 cells per well and incubated in an incubator (37° C., 5% CO2) for 24 hours. After the cells were completely adhered to the wall, the test sample and Plinabulin were diluted to different concentrations using fresh culture medium, and 4 wells were set for each concentration. After 72 hours of drug treatment, the culture medium was removed, and 20 μL of MTT at a concentration of 5 mg/mL was added to each well. After 3-4 hours in the incubator, the MTT was discarded, and 100 μL of DMSO was added to each well, and placed in a 96-well plate shaker to completely dissolve the purple formazan. Subsequently, the absorbance (OD value) was detected at a wavelength of 490 nm using a microplate reader. The experiment also required setting up zero-setting wells (blank culture medium, MTT, DMSO). Cell inhibition rate=1−(OD value of drug-dosed group−OD value of zero-setting group)/(OD value of blank group−OD value of zero-setting group)×100%.

HT-29 = test: Inhibition test on cell proliferation (MTT), HT-29; format: cell-based, human; conditions: Homo sapiens, HT-29, 72 h, 72 hours of drug treatment
Procedure: as §2

BxPC-3 = test: Inhibition test on cell proliferation (MTT), BxPC-3; format: cell-based, human; conditions: Homo sapiens, BXPC-3, 72 h, read-out: IC50 (nM) BxPC-3
In short: as §1

[1] = 72 hours of drug treatment, MTT, read-out: IC50 (nM) NCI-H460
[2] = 72 hours of drug treatment, MTT

| SMILES | melting point | IC50 (NCI-H460; [1]) | IC50 (HCC-LM3; [2]) | IC50 (HT-29) | IC50 (BxPC-3; [2]) | IC50 (HCC-LM3) | IC50 (NCI-H460; read-out: IC50 (nM) NCI-H460, 72 hours of drug treatment, MTT) | IC50 (BxPC-3) |
| --- | --- | --- | --- | --- | --- | --- | --- | --- |
| CC(C)c1c(/C=c2\[nH]c(=O)/c(=C/c3cc(F)ccc3F)[nH]c2=O)ncn1CCCN1CCOCC1 (as salt: hydrochloride) [PLN-2-7-1, (3Z,6Z)-3-(2,5-Difluorophenyl)methylene-6-((5-isopropyl-1-(3-morpholinyl)propylimidazol-4-yl)methylene)piperazine-2,5-dione, hydrochloride] | 174 to 176 °C |  |  |  |  |  |  |  |
| CC(C)c1c(/C=c2\[nH]c(=O)/c(=C/c3cccc(F)c3)[nH]c2=O)ncn1CCCN1CCO[C@H](C)C1 (as salt: hydrochloride) [PLN-2-56-1, (3Z,6Z)-3-(3-Fluorophenyl)methylene-6-(5-isopropyl-1-(3-(R)-(2-methylmorpholinyl)propylimidazol-4-yl)methylene)piperazine-2,5-dione, hydrochloride] | 232.8 to 234.8 °C |  |  |  |  |  |  |  |
| CC(C)c1c(/C=c2\[nH]c(=O)/c(=C/c3cccc(F)c3)[nH]c2=O)ncn1CCCN1CCO[C@@H](C)C1 (as salt: hydrochloride) [PLN-2-57-1, (3Z,6Z)-3-(3-Fluorophenyl)methylene-6-(5-isopropyl-1-(3-S)—(−2-methylmorpholinyl)propylimidazol-4-yl)methylene)piperazine-2,5-dione, hydrochloride] | 232.2 to 234.2 °C |  |  |  |  |  |  |  |
| Cc1cccc(/C=c2\[nH]c(=O)/c(=C/c3ncn(CCCN4CCOCC4)c3C(C)C)[nH]c2=O)c1C [PLN-2-50, (3Z,6Z)-3-(2,3-Dimethylphenyl)methylene-6-((5-isopropyl-1-(3-morpholinyl)propylimidazol-4-yl)methylene)piperazine-2,5-dione] | 164 to 166 °C | 41.3 ± 1.25 nM | 20.8 ± 2.56 nM | 37.1 ± 3.15 nM | 23 ± 1.56 nM |  |  |  |
| CCOCC1CN(CCCn2cnc(/C=c3\[nH]c(=O)/c(=C/c4cccc(F)c4)[nH]c3=O)c2C(C)C)CCO1 (centres unmarked) [PLN-2-58, (3Z,6Z)-3-(3-Fluorophenyl)methylene-6-(5-isopropyl-1-(3-(2-(ethoxymethyl)morpholinyl)propylimidazol-4-yl)methylene)piperazine-2,5-dione] | 202 to 204 °C | 11.8 ± 1.82 nM | 16.7 ± 0.98 nM |  | 8.1 ± 1.44 nM |  |  |  |
| CC(C)c1c(/C=c2\[nH]c(=O)/c(=C/c3cccc(F)c3)[nH]c2=O)ncn1CCCN1CCOC(COCc2ccccc2)C1 (centres unmarked) [PLN-2-60, (3Z,6Z)-3-(3-Fluorophenyl)methylene-6-(5-isopropyl-1-(3-(2-(benzyloxymethyl)morpholinyl)propylimidazol-4-yl)methylene)piperazine-2,5-dione] | 157 to 159 °C |  |  |  |  | 49.2 ± 1.3 nM | 59.67 ± 0.3 nM | 27.2 ± 1.42 nM |

Now from value to molecule, other results behind:

| melting point | IC50 (NCI-H460; [1]) | IC50 (HCC-LM3; [2]) | IC50 (HT-29) | IC50 (BxPC-3; [2]) | SMILES | IC50 (HCC-LM3) | IC50 (NCI-H460; read-out: IC50 (nM) NCI-H460, 72 hours of drug treatment, MTT) | IC50 (BxPC-3) |
| --- | --- | --- | --- | --- | --- | --- | --- | --- |
| 176 to 178 °C | 99.72 ± 0.82 nM |  |  |  | CC(C)c1c(/C=c2\[nH]c(=O)/c(=C/c3cccc(Oc4ccc(F)cc4)c3)[nH]c2=O)ncn1CCCN1CCNCC1 [PLN-2-18] |  |  |  |
| 169 to 171 °C | 33.7 ± 0.7 nM | 18.4 ± 1.42 nM | 35.2 ± 2.15 nM | 27.3 ± 2.75 nM | Cc1ccccc1/C=c1\[nH]c(=O)/c(=C/c2ncn(CCCN3CCOCC3)c2C(C)C)[nH]c1=O [PLN-2-49, (3Z,6Z)-3-(2-Methylphenyl)methylene-6-((5-isopropyl-1-(3-morpholinyl)propylimidazol-4-yl)methylene)piperazine-2,5-dione] |  |  |  |
| 178 to 180 °C | 21.7 ± 3.04 nM | 7.49 ± 0.12 nM | 9.03 ± 0.29 nM | 13.9 ± 3.21 nM | Cc1cccc(/C=c2\[nH]c(=O)/c(=C/c3ncn(CCCN4CCOCC4)c3C(C)C)[nH]c2=O)c1 [PLN-2-51, (3Z,6Z)-3-(3-Methylphenyl)methylene-6-((5-isopropyl-1-(3-morpholinyl)propylimidazol-4-yl)methylene)piperazine-2,5-dione] |  |  |  |
| 178 to 180 °C | 27.4 ± 0.52 nM | 23.3 ± 2.49 nM |  | 15.5 ± 0.74 nM | CCCOCC1CN(CCCn2cnc(/C=c3\[nH]c(=O)/c(=C/c4cccc(F)c4)[nH]c3=O)c2C(C)C)CCO1 (centres unmarked) [PLN-2-59, (3Z,6Z)-3-(3-fluorophenyl)methylene-6-(5-isopropyl-1-(3-(2-(propoxymethyl)morpholinyl)propylimidazol-4-yl)methylene)piperazine-2,5-dione] |  |  |  |
